Entries after “also recorded” stand apart in the source; their conditions may differ.
What was measured:
[1] = molecular target: T1, α-mannosidase from jack bean (Canavalia ensiformis, UniProt C0HJB3); assay: Screen for inhibition of α-mannosidase from jack bean; type: biochemical; details: for IC50: read-out: Concentration Required for 50% Inhibitions, α-Mannosidase (jack bean)
T1 sequence (C0HJB3 1-981): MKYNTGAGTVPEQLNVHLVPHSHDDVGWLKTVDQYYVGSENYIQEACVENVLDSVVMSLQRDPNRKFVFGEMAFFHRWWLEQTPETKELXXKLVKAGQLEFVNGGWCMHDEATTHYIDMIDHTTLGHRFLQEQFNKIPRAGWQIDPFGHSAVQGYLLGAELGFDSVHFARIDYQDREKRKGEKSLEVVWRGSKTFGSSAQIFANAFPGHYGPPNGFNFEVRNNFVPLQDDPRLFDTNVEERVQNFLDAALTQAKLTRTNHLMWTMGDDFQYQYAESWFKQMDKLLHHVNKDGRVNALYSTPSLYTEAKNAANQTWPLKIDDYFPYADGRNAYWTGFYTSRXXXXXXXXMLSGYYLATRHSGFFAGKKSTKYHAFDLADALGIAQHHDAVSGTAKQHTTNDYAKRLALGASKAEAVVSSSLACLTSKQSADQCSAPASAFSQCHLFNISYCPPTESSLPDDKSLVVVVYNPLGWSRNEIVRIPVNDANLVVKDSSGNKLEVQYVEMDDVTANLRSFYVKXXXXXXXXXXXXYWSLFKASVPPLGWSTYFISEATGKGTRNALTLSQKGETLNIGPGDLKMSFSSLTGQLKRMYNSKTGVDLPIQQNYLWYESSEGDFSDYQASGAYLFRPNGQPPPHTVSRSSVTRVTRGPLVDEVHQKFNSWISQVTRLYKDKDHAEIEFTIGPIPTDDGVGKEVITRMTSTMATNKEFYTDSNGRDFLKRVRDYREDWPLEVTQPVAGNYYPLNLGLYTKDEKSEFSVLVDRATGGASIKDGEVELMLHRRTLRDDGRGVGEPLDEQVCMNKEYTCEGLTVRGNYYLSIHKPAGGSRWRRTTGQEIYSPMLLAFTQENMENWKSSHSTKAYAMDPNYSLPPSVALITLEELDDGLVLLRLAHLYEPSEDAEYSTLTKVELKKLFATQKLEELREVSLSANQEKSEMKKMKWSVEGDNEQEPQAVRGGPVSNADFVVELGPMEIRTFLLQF

lysosomal mannosidase = molecular target: T2, lysosomal mannosidase (Homo sapiens, UniProt O00754); assay: Selectivity for inhibition of α-mannosidase II vs. lysosomal mannosidase; type: biochemical; details: for ratio M/L (smaller is better): ratio of activities of α-Mannosidase II/lysosomal mannosidase
T2 sequence (O00754 50-1011): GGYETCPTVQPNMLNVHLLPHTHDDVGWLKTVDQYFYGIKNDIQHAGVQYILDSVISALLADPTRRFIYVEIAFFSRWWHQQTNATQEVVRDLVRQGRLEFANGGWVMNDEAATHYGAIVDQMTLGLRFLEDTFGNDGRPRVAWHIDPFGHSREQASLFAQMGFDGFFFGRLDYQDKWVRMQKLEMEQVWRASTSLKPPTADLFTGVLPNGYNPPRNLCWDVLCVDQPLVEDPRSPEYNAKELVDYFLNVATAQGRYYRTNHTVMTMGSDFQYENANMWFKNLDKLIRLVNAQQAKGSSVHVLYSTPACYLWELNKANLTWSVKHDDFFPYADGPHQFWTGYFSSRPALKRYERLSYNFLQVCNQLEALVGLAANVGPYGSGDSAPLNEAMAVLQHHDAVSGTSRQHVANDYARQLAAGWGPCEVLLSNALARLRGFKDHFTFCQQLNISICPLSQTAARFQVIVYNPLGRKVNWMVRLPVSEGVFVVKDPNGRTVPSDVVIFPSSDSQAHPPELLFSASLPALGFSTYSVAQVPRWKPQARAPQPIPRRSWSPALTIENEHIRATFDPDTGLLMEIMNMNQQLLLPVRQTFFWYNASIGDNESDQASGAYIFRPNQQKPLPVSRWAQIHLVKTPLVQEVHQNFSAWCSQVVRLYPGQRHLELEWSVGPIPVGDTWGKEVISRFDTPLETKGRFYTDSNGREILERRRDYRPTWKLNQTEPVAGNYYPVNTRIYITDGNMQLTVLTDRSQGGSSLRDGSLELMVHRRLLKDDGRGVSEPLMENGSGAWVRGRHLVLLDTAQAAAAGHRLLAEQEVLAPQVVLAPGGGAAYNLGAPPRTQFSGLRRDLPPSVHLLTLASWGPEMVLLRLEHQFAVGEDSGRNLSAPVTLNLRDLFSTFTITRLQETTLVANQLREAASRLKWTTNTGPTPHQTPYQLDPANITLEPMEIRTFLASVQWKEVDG

[2] = 50 to 550 μg/kg/day continuous i.v. infusion over 5 days, cited from earlier work
Golgi α-mannosidase II = molecular target: T3, Golgi α-mannosidase II (Homo sapiens, UniProt Q16706); assay: Inhibition of the glycoprotein processing Golgi α-mannosidase II; type: biochemical
T3 sequence (Q16706 1-1144): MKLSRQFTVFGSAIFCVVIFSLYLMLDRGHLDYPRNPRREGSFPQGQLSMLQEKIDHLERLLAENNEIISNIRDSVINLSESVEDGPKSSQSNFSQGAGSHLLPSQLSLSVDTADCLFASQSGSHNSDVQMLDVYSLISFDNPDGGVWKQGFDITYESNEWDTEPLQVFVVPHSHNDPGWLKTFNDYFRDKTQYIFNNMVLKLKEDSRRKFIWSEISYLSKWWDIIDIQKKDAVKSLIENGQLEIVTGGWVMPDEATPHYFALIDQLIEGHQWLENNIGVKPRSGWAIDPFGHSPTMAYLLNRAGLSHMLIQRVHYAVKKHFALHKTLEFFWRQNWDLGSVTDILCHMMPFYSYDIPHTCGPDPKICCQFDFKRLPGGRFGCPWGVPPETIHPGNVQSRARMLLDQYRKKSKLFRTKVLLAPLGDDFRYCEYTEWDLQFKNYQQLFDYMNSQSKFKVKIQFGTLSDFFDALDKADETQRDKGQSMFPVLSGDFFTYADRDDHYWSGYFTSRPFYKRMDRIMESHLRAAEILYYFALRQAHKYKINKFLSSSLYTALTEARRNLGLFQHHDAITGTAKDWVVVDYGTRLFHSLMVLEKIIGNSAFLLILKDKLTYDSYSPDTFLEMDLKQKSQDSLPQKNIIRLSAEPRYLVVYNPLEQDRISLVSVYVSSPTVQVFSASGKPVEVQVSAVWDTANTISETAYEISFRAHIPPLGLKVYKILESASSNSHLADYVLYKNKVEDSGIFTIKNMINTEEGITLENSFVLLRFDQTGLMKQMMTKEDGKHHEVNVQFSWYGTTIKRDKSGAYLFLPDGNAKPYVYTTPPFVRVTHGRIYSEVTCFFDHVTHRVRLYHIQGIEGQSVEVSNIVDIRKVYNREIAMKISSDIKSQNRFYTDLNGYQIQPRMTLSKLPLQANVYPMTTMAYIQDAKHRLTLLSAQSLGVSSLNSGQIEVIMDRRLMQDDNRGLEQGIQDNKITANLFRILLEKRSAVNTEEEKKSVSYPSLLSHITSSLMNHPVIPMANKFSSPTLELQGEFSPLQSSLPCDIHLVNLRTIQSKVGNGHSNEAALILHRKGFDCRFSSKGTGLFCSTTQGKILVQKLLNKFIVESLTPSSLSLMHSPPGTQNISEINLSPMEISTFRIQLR

[3] = animals; cited from earlier work

| Compound | IC50 [1] [µM] | selectivity for inhibition of α-mannosidase II over lysosomal mannosidase (in words) (lysosomal mannosidase) | ratio M/L (smaller is better) (lysosomal mannosidase) | α-mannosidase (jack bean) inhibitory activity (in words) [1] | also measured |
| --- | --- | --- | --- | --- | --- |
| CCCC[C@H]1CCN2C[C@@H](O)[C@@H](O)[C@@H]2[C@H]1O [Compound 77, (1S,2R,7S,8S,8aS)-7-Butyl-1,2,8-trihydroxyindolizidine] | > 1000 | – | – | – | – |
| CCCC[C@@H]1CCN2C[C@@H](O)[C@@H](O)[C@H]2[C@@H]1O [Compound 52, (1S,2R,7R,8R,8aR)-7-Butyl-1,2,8-trihydroxyindolizidine] | > 1000 | increased selectivity | 0.02 | – | selectivity for inhibition of α-mannosidase II over lysosomal mannosidase (lysosomal mannosidase): 50 fold; melting point: 156 °C |
| CC[C@H]1C[C@@H](O)[C@@H]2[C@H](O)[C@H](O)CN2C1 [Compound 24, (1S,2R,6S,8R,8aR)-6-Ethyl-1,2,8-trihydroxyindolizidine] | 30 | increased selectivity | 0.2 | highest degree of inhibitory activity | – |
| CC[C@@H]1C[C@@H](O)[C@@H]2[C@H](O)[C@H](O)CN2C1 [Compound 26, (1S,2R,6R,8R,8aR)-6-Ethyl-1,2,8-trihydroxyindolizidine] | 230 | increased selectivity | 0.47 | highest degree of inhibitory activity; also recorded: significant decrease in activity | – |
| CCCC[C@@H]1CCN2CC3OC(C)(C)O[C@H]3[C@@H]2[C@H]1O (stereo partly drawn) [Compound 54, (1S,2R,7R,8S,8aS)-7-Butyl-8-hydroxy-1,2-O-isopropylidenedioxyindolizidine] | > 1000 | – | – | – | – |
| CC1(C)OC2CN3CC[C@@H](CCOCc4ccccc4)[C@H](O)[C@H]3[C@@H]2O1 (stereo partly drawn) [Compound 55, (1S,2R,7R,8S,8aS)-7-[2-(Benzyloxy)ethyl]-8-hydroyx-1,2-O-isopropylidenedioxyindolizidine] | > 1000 | – | – | – | – |
| O[C@@H]1[C@H](CCOCc2ccccc2)CCN2C[C@@H](O)[C@@H](O)[C@@H]12 [Compound 53, (1S,2R,7S,8R,8aR)-7-[2-(Benzyloxy)ethyl]-1,2,8-trihydroxyindolizidine] | 890 | – | – | weak inhibitor | – |
| CCCC[C@@H]1CCN2C[C@@H](O)[C@@H](O)[C@@H]2[C@H]1O [Compound 56, (1S,2R,7R,8S,8aS)-7-Butyl-1,2,8-trihydroxyindolizidine] | > 1000 | – | – | – | – |
| O[C@H]1[C@H](CCOCc2ccccc2)CCN2C[C@@H](O)[C@@H](O)[C@H]12 [Compound 57, (1S,2R,7S,8S,8aS)-7-[2-(Benzyloxy)ethyl]-1,2,8-trihydroxyindolizidine] | > 1000 | – | – | – | – |
| O[C@H]1[C@@H](CCOCc2ccccc2)CCN2C[C@@H](O)[C@@H](O)[C@H]12 [Compound 78, (1S,2R,7R,8S,8aS)-7-[2-(Benzyloxy)ethyl]-1,2,8-trihydroxyindolizidine] | > 1000 | – | – | – | – |
| O[C@H]1[C@H]2[C@H](O)C[C@@H](CCOCc3ccccc3)CN2C[C@H]1O [Compound 27, (1S,2R,6R,8R,8aR)-6-[2-(Benzyloxy)ethyl]-1,2,8-trihydroxyindolizidine] | 275 | – | – | significant decrease in activity | – |
| O[C@H]1[C@H]2[C@H](O)CCCN2C[C@H]1O [Compound 1, swainsonine] | – | – | – | – | toxicity observed in patients ([2]; repeated at 28 day intervals): Moderate toxicity; Serum half-life ([2]; patients with advanced malignancies): 12 h; inhibition of α-mannosidase II (in words) (Golgi α-mannosidase II): potent inhibitor; preclinical toxicity [3]: low preclinical toxicity |
| O[C@H]1[C@H]2[C@H](O)C[C@H](CCOCc3ccccc3)CN2C[C@H]1O [Compound 25, (1S,2R,6S,8R,8aR)-6-[2-(Benzyloxy)ethyl]-1,2,8-trihydroxyindolizidine] | 70 | increased selectivity | 0.33 | slight decrease in inhibitory activity | – |
